Assay results as given in the supplement of paper PMC10307832.

Compound: CN1CCN(CC1)C2=CC(=C(C=C2)NC3=NC=C4C(=N3)N(C5=CC=CC=C5C(=O)N4C)C)OC [XMD8-85] + CCNC(=O)c1noc(-c2cc(C(C)C)c(O)cc2O)c1-c1ccc(CN2CCOCC2)cc1 [Luminespib] (partner 0.01 µM)
Assay: relative viability (nuclei count vs DMSO), 5 days (fraction); higher = more cells survive
Conditions: first compound 0.08 µM
Outline: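 Lung cancer cell lines, seeded in 1536-well plates, were treated the following day by pin tool with a single drug or with five library-drug doses (not always all listed) in √10 steps on top of a fixed anchor-drug dose. Cells were fixed and nuclei stained in one step after 5 days, and nuclei were counted. Relative viability is the nuclei count for treated wells divided by that for vehicle wells, reported as medians of duplicate plates.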

Cell Line	relative viability
201T	1.06
A-427	1.06
BEN	0.248
CAL-12T	0.315
COR-L23	0.504
COR-L 105	0.99
ChaGo-K-1	0.603
EKVX	0.911
EMC-BAC-2	1.26
EPLC-272H	0.266
H3255	1.03
HARA	0.927
HCC-15	0.481
HCC-44	1.32
HCC-827	0.834
HOP-62	0.932
LC-2-ad	1.26
LCLC-97TM1	0.715
LCLC-103H	0.96
LOU-NH91	0.413
LU99A	0.228
LXF-289	0.611
NCI-H23	0.207
NCI-H322M	0.609
NCI-H358	0.303
NCI-H441	0.299
NCI-H460	0.0362
NCI-H520	0.235
NCI-H1563	0.608
NCI-H1623	0.489

Same assay, conditions: first compound 0.253 µM

Cell Line	relative viability
201T	1.1
A-427	1.08
BEN	0.333
CAL-12T	0.652
COR-L23	0.589
COR-L 105	0.842
ChaGo-K-1	0.577
EKVX	0.905
EMC-BAC-2	1.24
EPLC-272H	0.373
H3255	0.829
HARA	0.726
HCC-15	0.479
HCC-44	1.21
HCC-827	0.486
LC-2-ad	0.996
LCLC-97TM1	0.87
LCLC-103H	0.941
LK-2	0.184
LOU-NH91	0.31
LU99A	0.252
LXF-289	0.57
NCI-H23	0.234
NCI-H322M	0.823
NCI-H358	0.172
NCI-H441	0.333
NCI-H460	0.0282
NCI-H520	0.257
NCI-H1563	0.488
NCI-H1623	0.418

Same assay, conditions: first compound 0.8 µM

Cell Line	relative viability
201T	1.02
A-427	1.25
ABC-1	0.793
BEN	0.851
CAL-12T	0.339
COR-L23	0.963
COR-L 105	0.645
ChaGo-K-1	0.71
EKVX	0.588
EMC-BAC-2	1.21
EPLC-272H	0.629
H3255	0.816
HARA	0.749
HCC-15	0.295
HCC-44	1.36
HCC-827	0.756
HOP-62	0.911
LC-2-ad	1.22
LCLC-97TM1	0.833
